# Laboratory results as given in patent US11110195B2, “Esculentin 1a derivatives and uses thereof” (University of Houston System, priority 2013, dated 2021).
# Residues, ends and D or L forms follow the SMILES beside them.
# How the values were obtained:
# P. aeruginosa ATCC 27853 = experiment: Bactericidal activity in the presence of salt (NaCl); type: cell-based, Pseudomonas aeruginosa; details: 150 mM NaCl, 37° C., 20 min
# Experimental: FIGS. 1A-1B show the effects of salt on the bactericidal activity of Esc-1a(1-21)NH2 against P. aeruginosa ATCC 27853. FIG. 1A: Bacterial cells were incubated with different concentrations of Esc-1a(1-21)NH2 in the presence of 150 mM NaCl for 20 minutes at 37° C. Mean data from three experiments, expressed as the percentage of bacteria killed by the peptide with respect to the control sample (bacteria not treated with the peptide) are reported. FIG. 1B: Bacterial cells were incubated with the peptide (1 μM) in the absence or in the presence of varying concentrations of NaCl at 37° C. for 20 minutes. Mean data from three experiments, expressed as the percentage of bacteria killed by the peptide with respect to the control sample (bacteria not treated with the peptide) are reported.
# Owing to their mode of action, the antimicrobial activity of antimicrobial peptides may be reduced in the presence of salt. […] In FIG. 1B, 2×10^6 CFU/ml P. aeruginosa (ATCC 27853) were incubated with 1 μM Esc-1a(1-21)NH2 in the presence of increasing amounts of NaCl at 37° C. for 20 minutes then aliquots plated and counted (n=3). Concentrations of Esc-1a(1-21)NH2 at 0.68 μM and above fully retained activity in 150 mM NaCl, the physiological salt concentration at the ocular surface.
# [1] = tested on: A. castellani (ATCC 50370) trophozoites; experiment: Acanthamoeba viability, ethidium homodimer-1 time lapse microscopy; type: cell-based, Acanthamoeba castellani
# Experimental: FIGS. 8A-8D show the effect of Esc-1a(1-21)NH2 on the viability of Acanthamoeba castellani. The amoeba were seeded in to chamber slides, then a fluorescent viability dye (ethidium homodimer-1) and 500 μg/ml Esc-1a(1-21)NH2 added. The amoebas were viewed by time lapse microscopy in an environmental chamber for 6 hours. Images are from before peptide addition at time zero in healthy trophozoites (FIG. 8A), then 10 minutes (FIG. 8B), 2 hours (FIG. 8C) and 6 hours (FIG. 8D) post addition of peptide Esc-1a(1-21)NH2. […] Significant amounts of debris accumulated over time indicating rupture of the cells.
# 1×10^4 A. castellani (ATCC 50370) trophozoites in PYG 712 growth medium were transferred to coverglass chamber slides and allowed to attach overnight. The cells were then incubated with PYG 712 medium containing a 1:100 dilution of ethidium homodimer-1 (EthD-1) for 15 minutes at room temperature. EthD-1 is a cell-impermeant viability indicator dye that is taken up by cells with a compromised plasma membrane and fluoresces red/orange when bound to DNA. Serial brightfield and fluorescence images were taken using a DeltaVision Spectris Core fluorescence microscope every 3 minutes for 30 minutes to visualize cellular health prior to addition of Esc-1a(1-21)NH2. The medium was then replaced with 200 μl growth media containing 125, 250 or 500 μg/ml Esc-1a(1-21)NH2 and 1:100 diluted ethidium homodimer-1. Brightfield and fluorescence images were taken every 3 minutes for another 6 hours. Serial images were compiled together using Softworx software (Applied Precision) to generate time-lapse videos.
# [2] = tested on: TNF-α secretion from LPS-stimulated RAW264.7 macrophages; experiment: Anti-endotoxin activity: TNF-α release from LPS-stimulated macrophages (ELISA); type: cell-based, murine; details: LPS 10 ng/ml, 4 hours
# Experimental: RAW264.7 cells were stimulated with LPS (10 ng/ml) derived from P. aeruginosa 10 in the presence of 1, 5, 10 and 20 μM Esc-1a(1-21)NH2 for 4 hours at 37° C. and 5% CO2. The percentage of inhibition of TNF-α release was normalized to that of macrophages stimulated with LPS without peptide (0% inhibition).
# Macrophages (Raw 264.7) were cultured overnight in 96-well plates (1×10^5 cells/well) in DMEM supplemented with 2 mM L-glutamine, 1 mM sodium pyruvate, non-essential amino acids (NEAA), and 10% FBS. The medium was then removed and replaced with fresh medium containing LPS (10 ng/ml final concentration) and the peptide at different concentrations. Cells were incubated at 37° C. for 4 h, after which the medium was collected and TNF-α concentration in the samples was evaluated using a mouse TNF-α enzyme-linked immunosorbant assay kit according to the manufacturer's protocol (ELISA, Biosource). Cells that were stimulated with LPS alone, and untreated cells served as controls. All experiments were done in triplicate.
compound,measurement,setting,value
CC[C@H](C)[C@H](NC(=O)CN)C(=O)N[C@@H](Cc1ccccc1)C(=O)N[C@@H](CO)C(=O)N[C@@H](CCCCN)C(=O)N[C@@H](CC(C)C)C(=O)N[C@@H](C)C(=O)NCC(=O)N[C@@H](CCCCN)C(=O)N[C@@H](CCCCN)C(=O)N[C@H](C(=O)N[C@@H](CCCCN)C(=O)N[C@@H](CC(N)=O)C(=O)N[C@@H](CC(C)C)C(=O)N[C@@H](CC(C)C)C(=O)N[C@H](C(=O)N[C@@H](CO)C(=O)NCC(=O)N[C@@H](CC(C)C)C(=O)N[C@@H](CCCCN)C(=O)NCC(N)=O)[C@@H](C)CC)[C@@H](C)CC [Esc-1a(1-21)NH2] (H-GIFSKLAGKKIKNLLISGLKG-NH2; N-terminus assumed),Peptide concentration fully retaining bactericidal activity,P. aeruginosa ATCC 27853,≥ 0.68 µM
same,trophozoites stained positively with EthD-1,"[1]; 125 μg/ml, 6 hours",approximately 67%
same,trophozoites stained positively with EthD-1,"[1]; 250 μg/ml, 10 minutes",approximately 82%
same,trophozoites stained positively with EthD-1,"[1]; 250 μg/ml, 6 hours",~100%
same,time until orange/red fluorescence (dead/dying cells) detected,[1]; 500 μg/ml,≤ 10 min
same,inhibition of TNF-α secretion,[2]; 10 μM peptide,~80%
same,inhibition of TNF-α secretion,[2]; 20 μM peptide,~90%
